Assay results as given in patent US11806407B2, “Refillable drug delivery by affinity homing” (UNIVERSITY OF NOTRE DAME DU LAC, priority 2018, dated 2023).
Like-named read-outs stand apart in the source and are kept apart here. Values belong to the compound of their own block, whether it stands above or below them.

How the values were obtained:
[1] = known competitor or probe guests, cited from earlier work
[2] = on the basis of fluorescence
[3] = Competition 1H-NMR to determine Keq of guests for CB[7]; format: binding
[4] = Solubility of bupivacaine alone and with CB[7]; format: physicochemical
[5] = NMR of bupivacaine bound to CB[7]; format: binding; details: preliminary, based on prior experience
[6] = mice, i.p., RTECS database; cited from earlier work
[7] = test system: MDA-MB-231 cells; assay: MTT in vitro cytotoxicity assay; format: cell-based; details: Homo sapiens, 72 hrs
[8] = Weight, survival and morbidity in the tumor studies; details: 3 mg/kg/day doxorubicin equivalent, three consecutive days
[9] = test system: MDA-MB-231 (luc+) tumor; assay: In vivo tumor model with hydrogel adjacent to the tumor; set-up: species or system mice; details: 3 mg/kg/day doxorubicin equivalent, three consecutive days
[10] = rats; cited from earlier work
[11] = cited from earlier work

Compound: NCCCCCCN [1,6-diaminohexane]
Keq for binding to CB[7], literature-reported [1]: 8.9e+07 M⁻¹

Compound: OC12CC3CC(CC(C3)C1)C2 [1-adamantanol]
Keq for binding to CB[7], literature-reported [1]: 2.3e+10 M⁻¹ | Keq for binding to CB[7], literature-reported ([1]; listed as SM2): ~1e+10 M⁻¹

Compound: CN(C)c1ccc2cc3ccc(N(C)C)cc3nc2c1 [Acridine Orange]
Keq for binding to CB[7], literature-reported [1]: 200000 M⁻¹

fold less accumulation at the hydrogel than the strong conjugate [2]: 3 fold | Keq for binding to CB[7] ([3]; competition 1H-NMR in D2O, association constant): 2.1e+10 M⁻¹
Compound: CN1/C(=C/C=C/C=C/C2=[N+](CCCCCC(=O)NCCC(=O)NC34CC5CC(CC(C5)C3)C4)c3ccc(S(=O)(=O)[O-])cc3C2(C)C)C(C)(C)c2cc(S(=O)(=O)O)ccc21 [Ad-Am-Cy5]

Compound: CC(=O)NCCC(=O)NC12CC3CC(CC(C3)C1)C2 [Ada-Am-Ac]
Krel ([3]; model guest relative to competitive guest, average of three competition experiments): 0.89

water solubility ([4]; combined with CB[7]): very good water solubility | solubility ([4]; on its own): sparingly soluble | binding to CB[7] [5]: ~10^8 M^−1
Compound: CCCCN1CCCCC1C(=O)Nc1c(C)cccc1C (stereo not shown) [bupivacaine]

Compound: COc1cccc2c1C(=O)c1c(O)c3c(c(O)c1C2=O)C[C@@](O)(C(=O)CO)C[C@@H]3O[C@H]1C[C@H](N)[C@H](O)[C@H](C)O1 [doxorubicin]
LD50 [6]: 11.2 mg/kg | IC50 [7]: 490 nM | tolerability (weight, survival) [8]: weight loss and poor survival outcomes | tumor growth [9]: tumors continued to grow in spite of treatment

Compound: NCc1ccc(CN)cc1 [p-xylylenediamine]
Keq for binding to CB[7], literature-reported [1]: 1.78e+09 M⁻¹ | Keq for binding to CB[7], literature-reported ([1]; listed as SM^−1): ~1e+09 M⁻¹ | Keq for binding to CB[7], literature-reported ([1]; listed as pxylylenediamine): 1.84e+09 M⁻¹

Compound: cucurbit[7]uril [CB[7]]
LD50 [10]: > 250 mg/kg | degradation in vivo [11]: not appreciably degraded in vivo
